# Measured values taken from PubChem BioAssay (NCI).
# Several values for one entry are separate records, joined by “and”; a condition that tells them apart may be missing. Equal entries are not always repeated.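 A five-concentration, 48-hour dose response in 96-well plates underlies each endpoint, interpolated linearly between surrounding concentrations. GI50: concentration for 50% inhibition of growth. TGI: concentration producing complete growth inhibition.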
# What was measured:
# Experiment in all cases: DTP human tumour cell line panel, 48 h
# 786-0 renal = tested on: 786-0 renal
# A498 renal = tested on: A498 renal
# A549 NSCLC = tested on: A549 NSCLC
# ACHN renal = tested on: ACHN renal
# BT-549 breast = tested on: BT-549 breast
# CAKI-1 renal = tested on: CAKI-1 renal
# CCRF-CEM leukemia = tested on: CCRF-CEM leukemia
# COLO 205 colon = tested on: COLO 205 colon
# DU-145 prostate = tested on: DU-145 prostate
# EKVX NSCLC = tested on: EKVX NSCLC
# HCC-2998 colon = tested on: HCC-2998 colon
# HCT-116 colon = tested on: HCT-116 colon
# HCT-15 colon = tested on: HCT-15 colon
# HL-60(TB) leukemia = tested on: HL-60(TB) leukemia
# HOP-62 NSCLC = tested on: HOP-62 NSCLC
# HOP-92 NSCLC = tested on: HOP-92 NSCLC
# HS 578T breast = tested on: HS 578T breast
# HT29 colon = tested on: HT29 colon
# IGROV1 ovarian = tested on: IGROV1 ovarian
# K-562 leukemia = tested on: K-562 leukemia
# KM12 colon = tested on: KM12 colon
# LOX IMVI melanoma = tested on: LOX IMVI melanoma
# M14 melanoma = tested on: M14 melanoma
# MALME-3M melanoma = tested on: MALME-3M melanoma
# MCF7 breast = tested on: MCF7 breast
# MDA-MB-435 = tested on: MDA-MB-435
# MDA-MB-468 breast = tested on: MDA-MB-468 breast
# MOLT-4 leukemia = tested on: MOLT-4 leukemia
# NCI-H226 lung = tested on: NCI-H226 lung
# NCI-H23 lung = tested on: NCI-H23 lung
# NCI-H460 lung = tested on: NCI-H460 lung
# NCI-H522 lung = tested on: NCI-H522 lung
# NCI/ADR-RES ovarian = tested on: NCI/ADR-RES ovarian
# OVCAR-3 ovarian = tested on: OVCAR-3 ovarian
# OVCAR-4 ovarian = tested on: OVCAR-4 ovarian
# OVCAR-5 ovarian = tested on: OVCAR-5 ovarian
# OVCAR-8 ovarian = tested on: OVCAR-8 ovarian
# PC-3 prostate = tested on: PC-3 prostate
# RPMI-8226 leukemia = tested on: RPMI-8226 leukemia
# RXF 393 renal = tested on: RXF 393 renal
# SF-268 CNS = tested on: SF-268 CNS
# SF-295 CNS = tested on: SF-295 CNS
# SF-539 CNS = tested on: SF-539 CNS
# SK-MEL-28 melanoma = tested on: SK-MEL-28 melanoma
# SK-MEL-5 melanoma = tested on: SK-MEL-5 melanoma
# SK-OV-3 ovarian = tested on: SK-OV-3 ovarian
# SN12C renal = tested on: SN12C renal
# SNB-19 CNS = tested on: SNB-19 CNS
# SR leukemia = tested on: SR leukemia
# SW-620 colon = tested on: SW-620 colon
# T-47D breast = tested on: T-47D breast
# TK-10 renal = tested on: TK-10 renal
# U251 CNS = tested on: U251 CNS
# UACC-257 melanoma = tested on: UACC-257 melanoma
# UACC-62 melanoma = tested on: UACC-62 melanoma
smiles,measurement,setting,value
O=C1Nc2ccc(Cl)cc2/C1=C/c1cccc(OCc2ccccn2)c1,GI50,786-0 renal,16.4 µM
same,TGI,786-0 renal,31.1 µM
same,GI50,A498 renal,18.2 µM
same,TGI,A498 renal,32.7 µM
same,GI50,A549 NSCLC,17.8 µM
same,TGI,A549 NSCLC,38.2 µM
same,GI50,ACHN renal,15 µM
same,TGI,ACHN renal,30 µM
same,GI50,BT-549 breast,14.1 µM
same,TGI,BT-549 breast,27.7 µM
same,GI50,CAKI-1 renal,15.3 µM
same,TGI,CAKI-1 renal,32 µM
same,GI50,CCRF-CEM leukemia,30.6 µM
same,TGI,CCRF-CEM leukemia,> 100 µM
same,GI50,COLO 205 colon,17.5 µM
same,TGI,COLO 205 colon,33 µM
same,GI50,DU-145 prostate,17.8 µM
same,TGI,DU-145 prostate,31.8 µM
same,GI50,EKVX NSCLC,8.43 µM
same,TGI,EKVX NSCLC,21.1 µM
same,GI50,HCC-2998 colon,17.8 µM
same,TGI,HCC-2998 colon,31.9 µM
same,GI50,HCT-116 colon,13 µM
same,TGI,HCT-116 colon,27.2 µM
same,GI50,HCT-15 colon,13.7 µM
same,TGI,HCT-15 colon,30.3 µM
same,GI50,HL-60(TB) leukemia,19.2 µM
same,TGI,HL-60(TB) leukemia,52.5 µM
same,GI50,HOP-62 NSCLC,15.8 µM
same,TGI,HOP-62 NSCLC,31.3 µM
same,GI50,HOP-92 NSCLC,14.7 µM
same,TGI,HOP-92 NSCLC,46.2 µM
same,GI50,HS 578T breast,17.7 µM
same,TGI,HS 578T breast,45.7 µM
same,GI50,HT29 colon,17.4 µM
same,TGI,HT29 colon,32.8 µM
same,GI50,IGROV1 ovarian,15.7 µM
same,TGI,IGROV1 ovarian,31.2 µM
same,GI50,K-562 leukemia,19 µM
same,TGI,K-562 leukemia,> 100 µM
same,GI50,KM12 colon,18.1 µM
same,TGI,KM12 colon,33.8 µM
same,GI50,LOX IMVI melanoma,13.3 µM
same,TGI,LOX IMVI melanoma,28.2 µM
same,GI50,M14 melanoma,16.3 µM
same,TGI,M14 melanoma,31.2 µM
same,GI50,MALME-3M melanoma,15.4 µM
same,TGI,MALME-3M melanoma,29 µM
same,GI50,MCF7 breast,7.15 µM
same,TGI,MCF7 breast,20.7 µM
same,GI50,MDA-MB-435,18.4 µM
same,TGI,MDA-MB-435,36 µM
same,GI50,MDA-MB-468 breast,11.9 µM
same,TGI,MDA-MB-468 breast,25.5 µM
same,GI50,MOLT-4 leukemia,12.4 µM
same,TGI,MOLT-4 leukemia,36.8 µM
same,GI50,NCI-H226 lung,16.3 µM
same,TGI,NCI-H226 lung,38.5 µM
same,GI50,NCI-H23 lung,14.5 µM
same,TGI,NCI-H23 lung,28.1 µM
same,GI50,NCI-H460 lung,18 µM
same,TGI,NCI-H460 lung,34.5 µM
same,GI50,NCI-H522 lung,14.6 µM
same,TGI,NCI-H522 lung,29.9 µM
same,GI50,NCI/ADR-RES ovarian,14.2 µM
same,TGI,NCI/ADR-RES ovarian,34 µM
same,GI50,OVCAR-3 ovarian,16.1 µM
same,TGI,OVCAR-3 ovarian,30.1 µM
same,GI50,OVCAR-4 ovarian,18.3 µM
same,TGI,OVCAR-4 ovarian,54.1 µM
same,GI50,OVCAR-5 ovarian,15.9 µM
same,TGI,OVCAR-5 ovarian,30.4 µM
same,GI50,OVCAR-8 ovarian,15.4 µM
same,TGI,OVCAR-8 ovarian,30.3 µM
same,GI50,PC-3 prostate,19.4 µM
same,TGI,PC-3 prostate,64.4 µM
same,GI50,RPMI-8226 leukemia,20 µM
same,TGI,RPMI-8226 leukemia,> 100 µM
same,GI50,RXF 393 renal,11.9 µM
same,TGI,RXF 393 renal,24.5 µM
same,GI50,SF-268 CNS,17.6 µM
same,TGI,SF-268 CNS,38.9 µM
same,GI50,SF-295 CNS,15.5 µM
same,TGI,SF-295 CNS,29.1 µM
same,GI50,SF-539 CNS,16 µM
same,TGI,SF-539 CNS,29.5 µM
same,GI50,SK-MEL-28 melanoma,16.8 µM
same,TGI,SK-MEL-28 melanoma,30.5 µM
same,GI50,SK-MEL-5 melanoma,17 µM
same,TGI,SK-MEL-5 melanoma,30.7 µM
same,GI50,SK-OV-3 ovarian,20.2 µM
same,TGI,SK-OV-3 ovarian,47 µM
same,GI50,SN12C renal,15.3 µM
same,TGI,SN12C renal,28.9 µM
same,GI50,SNB-19 CNS,15.7 µM
same,TGI,SNB-19 CNS,29.3 µM
same,GI50,SR leukemia,13 µM
same,TGI,SR leukemia,41.9 µM
same,GI50,SW-620 colon,17.5 µM
same,TGI,SW-620 colon,34.3 µM
same,GI50,T-47D breast,13.4 µM
same,TGI,T-47D breast,30.6 µM
same,GI50,TK-10 renal,18.7 µM
same,TGI,TK-10 renal,33.5 µM
same,GI50,U251 CNS,14.6 µM
same,TGI,U251 CNS,28.9 µM
same,GI50,UACC-257 melanoma,15.2 µM
same,TGI,UACC-257 melanoma,28.7 µM
same,GI50,UACC-62 melanoma,11.9 µM
same,TGI,UACC-62 melanoma,24.4 µM
CCN(CC)CCC(=O)Nc1ccc(Cn2nnc3c2C(=O)c2nnn(Cc4ccc(NC(=O)CCN(CC)CC)cc4)c2C3=O)cc1,GI50,MDA-MB-468 breast,0.17 µM
same,TGI,MDA-MB-468 breast,0.374 µM
COc1ccc2nc3ccc(OC)cc3c(SCCCN)c2c1,GI50,MDA-MB-468 breast,1.4 µM
same,TGI,MDA-MB-468 breast,2.94 µM
CN1C(=O)c2cc(Cl)nc3c(NC(=O)c4cccc(Cl)c4)c(Cl)c(NC(=O)c4cccc(Cl)c4)c1c23,GI50,MDA-MB-468 breast,1.99 µM
same,TGI,MDA-MB-468 breast,6.05 µM
Nc1ncnc2occ(-c3ccc(NC(=O)Nc4cc(C(F)(F)F)cc(C(F)(F)F)c4)cc3)c12,GI50,MDA-MB-468 breast,2.75 µM
same,TGI,MDA-MB-468 breast,7.81 µM
Cc1ccc([P+](Cc2ccc([N+](=O)[O-])cc2)(c2ccc(C)cc2)c2ccc(C)cc2)cc1,GI50,MDA-MB-468 breast,0.66 µM
same,TGI,MDA-MB-468 breast,5.8 µM
Oc1ccc(CSc2nnc(-c3cnccn3)o2)c2cccnc12,GI50,MDA-MB-468 breast,0.639 µM
same,TGI,MDA-MB-468 breast,7.8 µM
Cn1c(=O)n(-c2ccc(C(C)(C)C#N)cc2)c2c3cc(-c4cnc5ccccc5c4)ccc3ncc21,GI50,MDA-MB-468 breast,0.0118 µM and 0.00531 µM and < 0.0105 µM
same,TGI,MDA-MB-468 breast,0.0505 µM and 0.0285 µM and 0.0642 µM
